{"source": "patent US20240199676A1", "about": "“ANTIVIRAL COMPOUNDS AND METHODS OF MAKING AND USING THE SAME” (Gilead Sciences, Inc., priority 2022, published 2024)", "key": {"[1]": {"test_system": "Human Rhinovirus 16 (HRV16) in H1-HeLa cells", "test": "H1-HeLa HRV-CTG 384-well Assay (Ex. Y), HRV16", "assay_type": "cell-based", "conditions": "Rhinovirus A, 96 h, read-out: EC50 H1-HeLa_HRV16_HRV-CTG 384-well Assay (per Ex. Y)", "description": "Example Y: H1-HeLa HRV-CTG 384-well Assay\nH1-Hela cell line (ATCC, Manassas, VA, Cat #CRL-1958) was maintained in Dulbecco's […] (DMEM) (Corning, New York, NY, Cat #15-018CM) supplemented with 10% fetal bovine serum (FBS) (Hyclone, Logan, UT, Cat #SH30071-03), and 1× Penicillin-Streptomycin-L-Glutamine (Corning, New York, NY, Cat #30-009-CI). Cells were passaged 2 times per week to maintain sub-confluent densities and were used for experiments at passage 5-30. The Human Rhinovirus 1B (HRV1B) (ATCC, Manassas, VA, Cat #VR-1645) , Human Rhinovirus 14 (HRV14) (ATCC, Manassas, VA, Cat #VR-284), and Human Rhinovirus 16 (HRV16) (ATCC, Manassas, VA, Cat #BR-283) was obtained through ATCC. Viral infection was monitored by determining viability of H1-HeLa cells as described below.\nTest molecules are prepared in 100% DMSO in 384-well polypropylene plates (Greiner, Monroe, NC, Cat #784201) with 8 compounds per plate in grouped replicates of 4 at 10 serially diluted concentrations (1:3). The serially diluted compounds were transferred to low dead volume Echo plates (Labcyte, Sunnyvale, CA, Cat #LP-0200).\nThe test compounds were spotted to 384-well assay plates (Greiner, Monroe, NC, Cat#781091) at 200 nL per well using an Echo acoustic dispenser (Labcyte, Sunnyvale, CA). H1-HeLa cells were harvested and suspended in DMEM (supplemented with 2% FBS and 1× Penicillin-Streptomycin-L-Glutamine) and seeded to the pre-spotted assay plates at 5,000 cells per well in 30 μL. HRV1B, HRV14, and HRV16 was diluted in DMEM (supplemented with 2% FBS and 1× Penicillin-Streptomycin-L-Glutamine) at 97.1 million Infectious Units (IU) per mL, 151 million IU per mL and 221 million IU per mL respectively. 10 μL of virus per well was added to the assay plates containing cells and compounds, for an MOI of 0.5, 1.0, and 0.25 respectively. The assay plates were incubated for 4 days at 37° C. and 5% CO2. At the end of incubation, Celltiter-Glo (Promega, Madison, WI, Cat #(Ga7573) was prepared. The assay plates and Celltiter-Glo reagent were equilibrated to room temperature for at least 15 minutes. 40 μL per well of Celltiter-Glo reagent was added and the plates were incubated at room temperature for 15 minutes before reading the luminescence signal on an EnVision multimode plate reader (Perkin Elmer, Waltham, MA). Rupintrivir was used as positive control and DMSO was used as negative control. Values were normalized to the positive and negative controls (as 0% and 100% replication, respectively) and data was fitted using non-linear regression analysis by Gilead's dose response tool. The EC50 value for each compound was defined as the concentration reducing viral replication by 50%."}, "[2]": {"test_system": "Respiratory syncytial virus recombinant with luciferase (RSV-Luc5) in NHBE cells", "test": "NHBE RSV-Luc5 384-well Assay (RSV FLUC NHBE 384 V2, Ex. W)", "assay_type": "cell-based", "conditions": "human respiratory syncytial virus, 72 h, read-out: EC50 RSV FLUC NHBE 384 V2 (per Ex. W)", "procedure,_shortened": "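NHBE cells (passage 2) seeded at 5,000 cells/well onto pre-spotted compounds, 10-point 1:3 dilutions, then infected with RSV-Luc5 at MOI 1. After 3 days at 37 °C, luciferase luminescence was read with One-Glo. Data normalized to remdesivir (0%) and DMSO (100% replication); EC50 from non-linear regression.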"}, "[3]": {"conditions": "H1-HeLa cells, HRV16 MOI 0.25, 4 days, Celltiter-Glo"}}, "note": "Read-outs that look alike come from different tables or passages of the source.", "data": [{"smiles": "CC(C)(C)CCC(=O)OC[C@@]1(C#N)O[C@@H](c2ccc3c(N)ncnn23)[C@H](O)[C@@H]1O", "note": "[Compound 36, ((2R,3S,4R,5S)-5-(4-aminopyrrolo[2,1-f][1,2,4]triazin-7-yl)-2-cyano-3,4-dihydroxytetrahydrofuran-2-yl)methyl 4,4-dimethylpentanoate]", "values": [{"measurement": "EC50", "setting": "[1]; [3]", "value": 8.03, "unit": "µM"}, {"measurement": "EC50", "setting": "[2]", "value": 10.8, "unit": "µM"}]}, {"smiles": "CC[C@@H](C)C(=O)OC[C@@]1(C#N)O[C@@H](c2ccc3c(N)ncnn23)[C@H](O)[C@@H]1O", "note": "[Compound 37, ((2R,3S,4R,5S)-5-(4-aminopyrrolo[2,1-f][1,2,4]triazin-7-yl)-2-cyano-3,4-dihydroxytetrahydrofuran-2-yl)methyl (R)-2-methylbutanoate]", "values": [{"measurement": "EC50", "setting": "[1]; [3]", "value": 9.78, "unit": "µM"}, {"measurement": "EC50", "setting": "[2]", "value": 9.93, "unit": "µM"}]}, {"smiles": "N#C[C@]1(COC(=O)Cc2ccccc2)O[C@@H](c2ccc3c(N)ncnn23)[C@H](O)[C@@H]1O", "note": "[Compound 38, ((2R,3S,4R,5S)-5-(4-aminopyrrolo[2,1-f][1,2,4]triazin-7-yl)-2-cyano-3,4-dihydroxytetrahydrofuran-2-yl)methyl 2-phenylacetate]", "values": [{"measurement": "EC50", "setting": "[1]; HRV16, H1-HeLa", "value": 8.44, "unit": "µM"}, {"measurement": "EC50", "setting": "[2]", "value": 10.6, "unit": "µM"}]}]}
